Key:
DMS 273 = test: in vitro small cell lung cancer cell growth inhibition (NCI screen); assay type: cell-based; details: Homo sapiens, read-out: cytotoxicity log GI50 (converted)
DMS 114 = test: as above; assay type: cell-based, human; details: for GI50: Homo sapiens, read-out: cytotoxicity log GI50 (converted)

Structure (SMILES) | GI50 (DMS 273) | GI50 (DMS 114) | cytotoxicity log GI50 (DMS 114)
CCC(C)Cn1c(C)nc2c1C(=O)c1ccccc1C2=O (centres unmarked) [Compound 13] | 9.77 µM |  | 
CCn1c(Cc2ccc(F)cc2)nc2c1C(=O)c1ccccc1C2=O [Compound 66] | 9.77 µM |  | 
CCC(C)n1c(C)nc2c1C(=O)c1ccccc1C2=O (centres unmarked) [Compound 6] | 33.9 µM |  | 
CC(=O)NC1=C(NCCN(C)C)C(=O)c2ccccc2C1=O [Compound 39] | 11.7 µM |  | 
Cc1nc2c(n1Cc1ccc(Cl)cc1)C(=O)c1ccccc1C2=O [Compound 20] | 2.63 µM |  | 
CCCC(C)n1c(C)nc2c1C(=O)c1ccccc1C2=O (centres unmarked) [Compound 9] | 7.24 µM |  | 
Cc1nc2c(n1C(C)(C)C)C(=O)c1ccccc1C2=O [Compound 8] | 52.5 µM |  | 
CCC(CC)n1c(C)nc2c1C(=O)c1ccccc1C2=O [Compound 10] | 22.9 µM |  | 
NC1=C(NC(=O)Cc2ccc(F)cc2)C(=O)c2ccccc2C1=O [Compound 3c] | 33.9 µM |  | 
O=C(Cc1ccccc1F)NC1=C(Cl)C(=O)c2ccccc2C1=O [Compound 2i, 2-(2-Fluorophenyl)acetamido-3-chloro-1,4-naphthoguinone] |  | 0.174 µM | 
Cc1ccc(Cn2c(C)nc3c2C(=O)c2ccccc2C3=O)cc1 [Compound 17] | 1.07 µM |  | 
Cc1nc2c(n1Cc1ccc(F)cc1)C(=O)c1ccccc1C2=O [Compound 19] | 6.46 µM |  | 
COc1ccc(Cn2c(C)nc3c2C(=O)c2ccccc2C3=O)cc1 [Compound 18] | 3.31 µM |  | 
Cc1nc2c(n1CC(C)C)C(=O)c1ccccc1C2=O [Compound 7] | 26.9 µM |  | 
CCn1c(C)nc2c1C(=O)c1ccccc1C2=O [Compound 5, 1-ethyl-2-methylnaphth-[2,3-d]imidazole-4,9-dione] | 1.66 µM | 0.275 µM | -6.56 M
CCC(C)(C)n1c(C)nc2c1C(=O)c1ccccc1C2=O [Compound 12] | 11.7 µM |  | 
Cc1nc2c(n1CCC(C)C)C(=O)c1ccccc1C2=O [Compound 11] | 11 µM |  | 
CC(=O)NC1=C(NCC(C)C)C(=O)c2ccccc2C1=O [Compound 31] | 14.5 µM | 14.8 µM | 
O=C1c2ccccc2C(=O)c2[nH]c(Cc3ccccc3F)nc21 [Compound 4b] | 34.7 µM | 33.9 µM | 
Cc1nc2c(n1CCO)C(=O)c1ccccc1C2=O [Compound 16] | 20 µM |  | 
CCC(C)NC1=C(NC(C)=O)C(=O)c2ccccc2C1=O (centres unmarked) [Compound 30] | 27.5 µM | 28.2 µM | 
